Source: the supplement of paper PMC10307832

Tests used:
Test in all cases: relative viability (nuclei count vs DMSO), 5 days (fraction); higher = more cells survive
EPLC-272H = system: EPLC-272H
Outline: (§1)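 The day after seeding in 1536-well plates, lung cancer cell lines were treated by pin tool with a single drug, or with a fixed anchor-drug dose together with five library-drug doses (not always all listed) in √10 steps. After 5 days, a combined fix-and-stain solution (final 0.05% Triton X-100, 1% formaldehyde, 1 ug/ml Hoechst) was added. Nuclei counted on 4× images gave relative viability as treated counts over vehicle counts, reported as the median of duplicate plates.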

SW 900 = system: SW 900
Outline: as §1

HOP-62 = system: HOP-62
Outline: as §1

NCI-H2085 = system: NCI-H2085
Outline: as §1

COR-L 105 = system: COR-L 105
Outline: as §1

NCI-H2009 = system: NCI-H2009
Outline: as §1

NCI-H2170 = system: NCI-H2170
Outline: as §1

NCI-H1666 = system: NCI-H1666
Outline: as §1

HCC-78 = system: HCC-78
Outline: as §1

NCI-H1915 = system: NCI-H1915
Outline: as §1

SK-LU-1 = system: SK-LU-1
Outline: as §1

A-427 = system: A-427
Outline: as §1

NCI-H1793 = system: NCI-H1793
Outline: as §1

NCI-H1792 = system: NCI-H1792
Outline: as §1

UMC-11 = system: UMC-11
Outline: as §1

NCI-H358 = system: NCI-H358
Outline: as §1

NCI-H1944 = system: NCI-H1944
Outline: as §1

LC-2-ad = system: LC-2-ad
Outline: as §1

LU99A = system: LU99A
Outline: as §1

LXF-289 = system: LXF-289
Outline: as §1

NCI-H460 = system: NCI-H460
Outline: as §1

HCC-366 = system: HCC-366
Outline: as §1

`COc1nc(C)cnc1NS(=O)(=O)c1cccnc1-c1ccc(-c2nnco2)cc1` [Zibotentan] + N=C(N)NC(=N)NCCc1ccccc1 [Phenformin] (partner 250 µM) showed a relative viability (EPLC-272H; first compound 0.08 µM) of 0.287, a relative viability (EPLC-272H; first compound 0.253 µM) of 0.296 and a relative viability (EPLC-272H; first compound 0.8 µM) of 0.306. For the same molecule, the relative viability (EPLC-272H; first compound 2.53 µM) was 0.306, the relative viability (SW 900; first compound 0.08 µM) was 0.557 and the relative viability (SW 900; first compound 0.253 µM) was 0.502. For the same molecule, the relative viability (SW 900; first compound 0.8 µM) was 0.669, the relative viability (SW 900; first compound 2.53 µM) was 0.801 and the relative viability (HOP-62; first compound 0.08 µM) was 0.746. It also gave a relative viability (HOP-62; first compound 0.253 µM) of 0.664, a relative viability (HOP-62; first compound 0.8 µM) of 0.747 and a relative viability (HOP-62; first compound 2.53 µM) of 0.715. For the same molecule, the relative viability (NCI-H2085; first compound 0.08 µM) was 0.73, the relative viability (NCI-H2085; first compound 0.253 µM) was 0.699 and the relative viability (NCI-H2085; first compound 0.8 µM) was 0.803. For the same molecule, the relative viability (NCI-H2085; first compound 2.53 µM) was 0.814, the relative viability (COR-L 105; first compound 0.08 µM) was 0.382 and the relative viability (COR-L 105; first compound 0.253 µM) was 0.423. The relative viability (COR-L 105; first compound 0.8 µM) was 0.406, the relative viability (COR-L 105; first compound 2.53 µM) was 0.554 and the relative viability (NCI-H2009; first compound 0.08 µM) was 0.494. It also gave a relative viability (NCI-H2009; first compound 0.253 µM) of 0.469, a relative viability (NCI-H2009; first compound 0.8 µM) of 0.542 and a relative viability (NCI-H2009; first compound 2.53 µM) of 0.481. The relative viability (NCI-H2170; first compound 0.08 µM) was 0.451, the relative viability (NCI-H2170; first compound 0.253 µM) was 0.389 and the relative viability (NCI-H2170; first compound 0.8 µM) was 0.436. The relative viability (NCI-H2170; first compound 2.53 µM) was 0.39, the relative viability (NCI-H1666; first compound 0.08 µM) was 0.515 and the relative viability (NCI-H1666; first compound 0.253 µM) was 0.54. It also gave a relative viability (NCI-H1666; first compound 0.8 µM) of 0.596, a relative viability (NCI-H1666; first compound 2.53 µM) of 0.559 and a relative viability (HCC-78; first compound 0.08 µM) of 0.778. The relative viability (HCC-78; first compound 0.253 µM) was 0.598, the relative viability (HCC-78; first compound 0.8 µM) was 0.581 and the relative viability (HCC-78; first compound 2.53 µM) was 0.59. For the same molecule, the relative viability (NCI-H1915; first compound 0.08 µM) was 0.399, the relative viability (NCI-H1915; first compound 0.253 µM) was 0.358 and the relative viability (NCI-H1915; first compound 0.8 µM) was 0.377. For the same molecule, the relative viability (NCI-H1915; first compound 2.53 µM) was 0.289, the relative viability (SK-LU-1; first compound 0.08 µM) was 0.53 and the relative viability (SK-LU-1; first compound 0.253 µM) was 0.463. The relative viability (SK-LU-1; first compound 0.8 µM) was 0.501, the relative viability (SK-LU-1; first compound 2.53 µM) was 0.503 and the relative viability (A-427; first compound 0.08 µM) was 0.38. It also gave a relative viability (A-427; first compound 0.253 µM) of 0.39, a relative viability (A-427; first compound 0.8 µM) of 0.397 and a relative viability (A-427; first compound 2.53 µM) of 0.348. It also gave a relative viability (NCI-H1793; first compound 0.08 µM) of 0.404, a relative viability (NCI-H1793; first compound 0.253 µM) of 0.431 and a relative viability (NCI-H1793; first compound 0.8 µM) of 0.31. For the same molecule, the relative viability (NCI-H1793; first compound 2.53 µM) was 0.406, the relative viability (NCI-H1792; first compound 0.08 µM) was 0.424 and the relative viability (NCI-H1792; first compound 0.253 µM) was 0.244. The relative viability (NCI-H1792; first compound 0.8 µM) was 0.355, the relative viability (NCI-H1792; first compound 2.53 µM) was 0.259 and the relative viability (UMC-11; first compound 0.08 µM) was 0.318. The relative viability (UMC-11; first compound 0.253 µM) was 0.291, the relative viability (UMC-11; first compound 0.8 µM) was 0.312 and the relative viability (UMC-11; first compound 2.53 µM) was 0.346. For the same molecule, the relative viability (NCI-H358; first compound 0.08 µM) was 0.288, the relative viability (NCI-H358; first compound 0.253 µM) was 0.134 and the relative viability (NCI-H358; first compound 0.8 µM) was 0.328. For the same molecule, the relative viability (NCI-H358; first compound 2.53 µM) was 0.345, the relative viability (NCI-H1944; first compound 0.08 µM) was 0.226 and the relative viability (NCI-H1944; first compound 0.253 µM) was 0.181. The relative viability (NCI-H1944; first compound 0.8 µM) was 0.188, the relative viability (NCI-H1944; first compound 2.53 µM) was 0.202 and the relative viability (LC-2-ad; first compound 0.08 µM) was 0.564. The relative viability (LC-2-ad; first compound 0.8 µM) was 0.689, the relative viability (LC-2-ad; first compound 2.53 µM) was 0.619 and the relative viability (LU99A; first compound 0.08 µM) was 0.922. The relative viability (LU99A; first compound 0.253 µM) was 0.853, the relative viability (LU99A; first compound 0.8 µM) was 0.795 and the relative viability (LU99A; first compound 2.53 µM) was 0.897. For the same molecule, the relative viability (LXF-289; first compound 0.08 µM) was 0.533, the relative viability (LXF-289; first compound 0.253 µM) was 0.489 and the relative viability (LXF-289; first compound 0.8 µM) was 0.571. For the same molecule, the relative viability (LXF-289; first compound 2.53 µM) was 0.543, the relative viability (NCI-H460; first compound 0.08 µM) was 0.56 and the relative viability (NCI-H460; first compound 0.253 µM) was 0.147. For the same molecule, the relative viability (NCI-H460; first compound 0.8 µM) was 0.496, the relative viability (NCI-H460; first compound 2.53 µM) was 0.532 and the relative viability (HCC-366; first compound 0.08 µM) was 0.692. The relative viability (HCC-366; first compound 0.253 µM) was 0.62, the relative viability (HCC-366; first compound 0.8 µM) was 0.577 and the relative viability (HCC-366; first compound 2.53 µM) was 0.603.
